Source: patent US8895509B2, “MIR-200 family induces mesenchymal-to-epithelial transition (MET) in ovarian cancer cells” (Georgia Tech Research Corporation, priority 2010, dated 2014)
Entries after “also recorded” stand apart in the source; their conditions may differ.

Tests used:
Format in all cases: cell-based, human
[1] = tested on: HEY cells; experiment: serum-induced invasion through a matrigel layer; details: miR-429 transfected HEY cells vs negative control
Protocol: For the migration and invasion assays, 2.5×10^3 overnight serum starved cells in serum-free media were added to the top chambers of trans-well plates (8 μm pore size; BD, Franklin Lakes, N.J.) and media containing 10% fetal calf serum (FCS) were added to the bottom chambers. After 8-12 h, the non-migrating (top) cells were removed and the invading (bottom) cells were counted. All assays were done in triplicate. For the wound-healing assay, 2.5×10^5 cells were seeded into six-well plates. After 24 h, a wound was incised, detached cells removed and fresh media added. Photos were taken after 8 hrs to monitor the invasion of cells into the wounded area.
To further explore the effects of ectopic expression of miR-429 in HEY cells, we looked for changes in cellular functions frequently associated with EMT. For example, ovarian and other types of cancer cells undergoing EMT typically display increased motility/migration and invasiveness. […] Relative invasiveness was also measured by monitoring serum-induced invasion through a matrigel layer.

[2] = tested on: HEY cells; experiment: anchorage-independent growth in soft agar; details: 8 days in soft agar, vs negative control
Protocol: Anchorage independent growth was examined using Cell Biolab's (San Diego, Calif.) soft agar kit according to the manufacturer's protocol. Briefly, 5,000 cells were grown in a 0.3% low melting temperature agar matrix. After 8 days of incubation, the agar matrix was solubilized, cells stained and absorbance recorded at 520 nm. The optical density (OD) was measured in a 96-well plate reader using a 485/520 nm filter set.
Anchorage-independent growth is another characteristic of mesenchymal cells and is considered a hallmark of cellular transformation [Takeyama et al., Cancer Lett 2010; 96:216-24]. We tested anchorage-independent growth of HEY cells transfected with miR-429 relative to controls.

[3] = tested on: HEY cells; experiment: sensitivity of transfected HEY cells to cisplatin; details: miR-429 vs negative control miRNA
Protocol: Cultures of the mesenchymal HEY cells were transfected with a negative control (NC) miRNA or miR-429 using Lipofectamine 2000 (Invitrogen) and treated with increasing concentrations of cisplatin. (0.1, 0.5, 1, 3, 5, 7, 10, 15, 20, 30, 50 μM).

In the case of “miR-429: miR-200 family member; mature miRNA UAAUACUGUCUGGUAAAACCGU (SEQ ID NO: 6); miRNA oligonucleotide (Ambion) transfected at 30 nM (listed as RNA, chemistry not given here; listed as Homo sapiens) [miR-200 family member; miRNA oligonucleotide (Ambion) transfected at 30 nM]”, the “decrease in invasion relative to controls” value [1] is reported as over 5 fold, the anchorage-independent growth [2] is reported as “significant suppression; also recorded: significantly reduced” and the sensitivity to cisplatin [3] is reported as “increased significantly”.
